Test results taken from patent US10035796B2, “Crystalline forms of a BACE inhibitor, compositions, and their use” (Merck Sharp & Dohme Corp., priority 2014, dated 2018).

What was measured:
[1] = Hygroscopicity by dynamic vapor sorption (DVS); type: physicochemical
Method: Hygroscopicity was evaluated by using a dynamic vapor sorption instrument (DVI). The experiment was performed under controlled temperature conditions with temperature set at 25° C. Following a drying step at 40° C. for 60 minutes, samples were subjected to water vapor starting from 5% relative humidity with stepwise increase up to 95% relative humidity in 5% increments. The desorption experiment was performed under the same conditions with a stepwise decrease in relative humidity. Maximum equilibrium time was held as 180 minutes with equilibrium criteria as 0.005 weight % in 5 min.

[2] = Single oral dose pharmacokinetic study in male rats; type: in vivo; conditions: male rats (n=4 per group), suspension in 4% hydroxypropyl methylcellulose, nominal dose 100 mg/kg, FIG. 5
Method: (FIG. 5). […] To generate the data shown in FIG. 5, a single oral dose pharmacokinetic study was conducted as a two-way parallel design in male rats (n=4 per group). For each form a suspension was prepared in 4% hydroxypropyl methylcellulose with nominal dose as 100 mg/kg.

| Compound | crystalline form by PXRD after the vapor sorption analysis ([1]; after sorption/desorption between 5% and 95% relative humidity) | moisture uptake ([1]; ambient temperature, 95% relative humidity, DVS measurement) | hygroscopicity according to the European Pharmacopeia classification ([1]; dynamic vapor sorption, 25° C.) | mean plasma concentration-time profile [2] |
| --- | --- | --- | --- | --- |
| CN1C(=N)N[C@](C)(c2cc(NC(=O)c3ccc(F)cn3)ccc2F)CS1(=O)=O [Crystalline Anhydrous Form 1] | retain the identical Crystalline Anhydrous Form 1 | 0.04 weight % | non-hygroscopic | essentially identical to that of the corresponding amorphous HCl salt form |
| CN1C(N)=NC(C)(c2cc(NC(=O)c3ccc(F)cn3)ccc2F)CS1(=O)=O.Cl (centres unmarked) [amorphous HCl salt form] |  |  |  | excellent |
